The values that follow come from PubChem BioAssay AID330 (DTP/NCI, 2004).

Several values for one entry are separate records, joined by “and”; a condition that tells them apart may be missing. Equal entries are not always repeated. Inconclusive results and toxic doses are left out.

This assay has as its system P388 leukemia ip, CD2F1 mice, survival T/C. Nature of the assay: NCI In Vivo Anticancer Drug Screen. Data for tumor model P388 Leukemia (intraperitoneal) in CD2F1 (CDF1) mice. The note with it: endpoint: median survival time, higher = longer survival. In outline:
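Mice carrying the transplanted tumor received test compound or vehicle. Survival was recorded in each group, and the value is the treated-group measurement divided by that of the vehicle-treated control group.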

The mark [1] stands for this setting: dose: 50.0 mg/kg/injection, schedule: Q01DX009 (ip), vehicle: Klucel (hydroxypropylcellulose) (HPC).
Where [2] appears, read: dose: 100.0 mg/kg/injection, schedule: Q01DX009 (ip), vehicle: Klucel (hydroxypropylcellulose) (HPC).
[3] abbreviates: dose: 15.0 mg/kg/injection, schedule: Q01DX005 (ip), vehicle: saline with Tween-80.
The mark [4] stands for this setting: dose: 30.0 mg/kg/injection, schedule: Q01DX005 (ip), vehicle: saline with Tween-80.
Where [5] appears, read: dose: 60.0 mg/kg/injection, schedule: Q01DX005 (ip), vehicle: saline with Tween-80.
Setting [6] is: dose: 120.0 mg/kg/injection, schedule: Q01DX005 (ip), vehicle: saline with Tween-80.
Setting [7] is: dose: 240.0 mg/kg/injection, schedule: Q01DX005 (ip), vehicle: saline with Tween-80.
Setting [8] is: dose: 12.5 mg/kg/injection, schedule: Q01DX009 (ip), vehicle: saline.
Where [9] appears, read: dose: 25.0 mg/kg/injection, schedule: Q01DX009 (ip), vehicle: saline.
Where [10] appears, read: dose: 50.0 mg/kg/injection, schedule: Q01DX009 (ip), vehicle: saline.
Setting [11] is: dose: 50.0 mg/kg/injection, schedule: Q01DX005 (ip), vehicle: saline with Tween-80.
[12] abbreviates: dose: 100.0 mg/kg/injection, schedule: Q01DX005 (ip), vehicle: saline with Tween-80.
Where [13] appears, read: dose: 200.0 mg/kg/injection, schedule: Q01DX005 (ip), vehicle: saline with Tween-80.
Setting [14] is: dose: 50.0 mg/kg/injection, schedule: Q01DX009 (ip), vehicle: saline with Tween-80.
Setting [15] is: dose: 100.0 mg/kg/injection, schedule: Q01DX009 (ip), vehicle: saline with Tween-80.
The mark [16] stands for this setting: dose: 200.0 mg/kg/injection, schedule: Q01DX009 (ip), vehicle: saline with Tween-80.

Consider `CC(C)CC(=O)NC(C(=O)NC(C(=O)NC(CC(C)C)C(O)CC(=O)NC(C)C(=O)NC(CC(C)C)C(O)CC(=O)O)C(C)C)C(C)C` (stereo not drawn), for which the T/C (dose: 6.25 mg/kg/injection, schedule: Q01DX009 (ip), vehicle: Klucel (hydroxypropylcellulose) (HPC)) is 102 % of control; the T/C under setting [1] is 98 % of control and 122 % of control and 87 % of control; the T/C under setting [2] was 90 % of control and 95 % of control.
Take `CC1(C)CCCC(C)(C)N1CC#CCON1C(=O)c2ccccc2C1=O`: the T/C runs as follows: (dose: 100.0 mg/kg/injection, schedule: Q04DX002 (ip), vehicle: Klucel (hydroxypropylcellulose) (HPC)) 102 % of control; (dose: 200.0 mg/kg/injection, schedule: Q04DX002 (ip), vehicle: Klucel (hydroxypropylcellulose) (HPC)) 96 % of control; (dose: 400.0 mg/kg/injection, schedule: Q04DX002 (ip), vehicle: Klucel (hydroxypropylcellulose) (HPC)) 105 % of control.
In the case of `Cc1cc(=O)n(-c2ccc(F)cc2)[nH]1`, the T/C runs as follows: (dose: 60.0 mg/kg/injection, schedule: Q01DX005 (ip), vehicle: Klucel (hydroxypropylcellulose) (HPC)) 89 % of control; (dose: 120.0 mg/kg/injection, schedule: Q01DX005 (ip), vehicle: Klucel (hydroxypropylcellulose) (HPC)) 92 % of control; (dose: 240.0 mg/kg/injection, schedule: Q01DX005 (ip), vehicle: Klucel (hydroxypropylcellulose) (HPC)) 90 % of control.
In the case of `CC(C)=CCCc1cc(-c2cc(CCC=C(C)C)nc(N)n2)nc(N)n1`, the T/C is, setting by setting: (dose: 60.0 mg/kg/injection, schedule: Q01DX005 (ip), vehicle: saline) 99 % of control; (dose: 120.0 mg/kg/injection, schedule: Q01DX005 (ip), vehicle: saline) 103 % of control.
Turning to `CCOc1ccc2nc3cc(I)ccc3c(N)c2c1`, the T/C by setting is: (dose: 7.5 mg/kg/injection, schedule: Q01DX005 (ip), vehicle: saline with Tween-80) 102 % of control; under setting [3], 100 % of control; under setting [4], 112 % of control.
`CCCCCCC(=O)C(=O)c1ccc(O)c(C)c1O`: the T/C by setting is: under setting [1], 89 % of control; under setting [2], 93 % of control; (dose: 200.0 mg/kg/injection, schedule: Q01DX009 (ip), vehicle: Klucel (hydroxypropylcellulose) (HPC)) 93 % of control.
As to `CC(=O)OC1C(=O)C(C)(C)CN(C(C)(C)C)CC1(C)C` (stereo not drawn), the T/C runs as follows: (dose: 50.0 mg/kg/injection, schedule: Q01DX001 (ip), vehicle: saline sonified) 100 % of control; (dose: 100.0 mg/kg/injection, schedule: Q01DX001 (ip), vehicle: saline sonified) 104 % of control; (dose: 200.0 mg/kg/injection, schedule: Q01DX001 (ip), vehicle: saline sonified) 95 % of control.
In the case of `COc1cc(OC)c(C2c3cc4c(cc3OC(C)(O)C2C)OCO4)c(OC)c1` (stereo not drawn), the T/C was 94 % of control (dose: 100.0 mg/kg/injection, schedule: Q04DX002 (ip), vehicle: saline with Tween-80); 89 % of control (dose: 200.0 mg/kg/injection, schedule: Q04DX002 (ip), vehicle: saline with Tween-80); 102 % of control (dose: 400.0 mg/kg/injection, schedule: Q04DX002 (ip), vehicle: saline with Tween-80).
Regarding `CCc1ccccc1NC(=O)C(=O)CC(=O)CS(=O)(=O)c1ccc(C)cc1`, the T/C is, setting by setting: under setting [5], 103 % of control; under setting [6], 100 % of control; under setting [7], 103 % of control.
As to `CCCC(C(=O)OCCN(CC)CC)(c1ccccc1)c1ccccc1`, the T/C is 108 % of control under setting [8]; 100 % of control (dose: 12.5 mg/kg/injection, schedule: Q04DX003 (ip), vehicle: saline); 100 % of control under setting [9]; 100 % of control (dose: 25.0 mg/kg/injection, schedule: Q04DX003 (ip), vehicle: saline); 91 % of control under setting [10]; 100 % of control (dose: 50.0 mg/kg/injection, schedule: Q04DX003 (ip), vehicle: saline).
With `c1ccc2c3c(cc(CNCCNCc4cc5c(c6ccccc46)CCCC5)c2c1)CCCC3`, the T/C by setting is: under setting [11], 87 % of control; under setting [12], 96 % of control; under setting [13], 110 % of control.
As for `C=CCCCC(=O)CCCCBr`, the T/C was 122 % of control under setting [14], 108 % of control under setting [15] and 110 % of control under setting [16].
On to `COC1(c2ccccc2)C2CCCCC2C2CCCCC21` (stereo not drawn), for which the T/C under setting [11] is 100 % of control, the T/C under setting [12] was 98 % of control and the T/C under setting [13] was 100 % of control.
Consider `O=C1c2ccccc2C(=O)N1CCS(=O)(=O)Cl`, for which the T/C is 100 % of control (dose: 12.5 mg/kg/injection, schedule: Q01DX009 (ip), vehicle: saline with Tween-80); 106 % of control (dose: 25.0 mg/kg/injection, schedule: Q01DX009 (ip), vehicle: saline with Tween-80); 114 % of control under setting [14]; 117 % of control under setting [15].
With `Cn1c(/C=[N+](/C)[O-])cnc1[N+](=O)[O-]`, the T/C reads like this: (dose: 50.0 mg/kg/injection, schedule: Q01DX009 (ip), vehicle: suspension in saline) 102 % of control; (dose: 100.0 mg/kg/injection, schedule: Q01DX009 (ip), vehicle: suspension in saline) 103 % of control; (dose: 200.0 mg/kg/injection, schedule: Q01DX009 (ip), vehicle: suspension in saline) 108 % of control.
As for `O=C(Nc1ccc(Cl)cc1)c1cc2c(cc1O)[nH]c1ccccc12`, the T/C is 92 % of control under setting [11], 96 % of control under setting [12] and 98 % of control under setting [13].
As to `NC(=O)CCSC(N)=O`, the T/C is 102 % of control under setting [11], 100 % of control under setting [12] and 102 % of control under setting [13].
`CCCCNC(=S)S`: the T/C reads like this: under setting [15], 109 % of control; under setting [16], 109 % of control; (dose: 400.0 mg/kg/injection, schedule: Q01DX009 (ip), vehicle: saline with Tween-80) 104 % of control.
As to `Cc1nc(N)nc(N)c1N1CCN(c2ccc(C(=O)NC(C(=O)O)C(=O)O)cc2)CC1`, the T/C was 184 % of control (dose: 3.75 mg/kg/injection, schedule: Q01DX005 (ip), vehicle: Klucel + Tween-80); 215 % of control (dose: 7.5 mg/kg/injection, schedule: Q01DX005 (ip), vehicle: Klucel + Tween-80); 87 % of control (dose: 15.0 mg/kg/injection, schedule: Q01DX005 (ip), vehicle: Klucel + Tween-80).
As to `CCOC(=O)CC1CC2c3cc(OC)c(OC)cc3CCN2CC1CC` (stereo not drawn), the T/C (dose: 12.5 mg/kg/injection, schedule: Q01DX009 (ip), vehicle: Klucel (hydroxypropylcellulose) (HPC)) was 108 % of control; the T/C (dose: 25.0 mg/kg/injection, schedule: Q01DX009 (ip), vehicle: Klucel (hydroxypropylcellulose) (HPC)) was 114 % of control; the T/C under setting [1] is 100 % of control and 114 % of control.
Take `O=C(Nc1ccccc1)c1c(O)[nH]c(=S)[nH]c1=O`: the T/C is, setting by setting: (dose: 3.13 mg/kg/injection, schedule: Q01DX005 (ip), vehicle: saline with Tween-80) 110 % of control; (dose: 6.25 mg/kg/injection, schedule: Q01DX005 (ip), vehicle: saline with Tween-80) 116 % of control; (dose: 12.5 mg/kg/injection, schedule: Q01DX005 (ip), vehicle: saline with Tween-80) 120 % of control; under setting [11], 162 % of control and 201 % of control; (dose: 75.0 mg/kg/injection, schedule: Q01DX009 (ip), vehicle: saline with Tween-80) 210 % of control and 237 % of control and 240 % of control; (dose: 175.0 mg/kg/injection, schedule: Q01DX009 (ip), vehicle: saline with Tween-80) 283 % of control.
With `CCCCCCCCCCCC(C)[N+](C)(C)[O-]` (stereo not drawn), the T/C is 102 % of control under setting [8]; 96 % of control under setting [9]; 87 % of control and 91 % of control under setting [10].
On to `Nc1ccc(CCCCc2ccc(S(=O)(=O)F)cc2Cl)c(Cl)c1`, for which the T/C reads like this: under setting [3], 101 % of control; under setting [4], 118 % of control; under setting [14], 91 % of control; under setting [5], 93 % of control; under setting [15], 99 % of control; under setting [6], 87 % of control. The T/C by setting is: under setting [16], 98 % of control; under setting [7], 92 % of control.
As for `CC/C(C)=N\Nc1cc(C)[nH]c(=O)c1`, the T/C by setting is: (dose: 100.0 mg/kg/injection, schedule: Q01DX001 (ip), vehicle: saline with Tween-80) 105 % of control; (dose: 200.0 mg/kg/injection, schedule: Q01DX001 (ip), vehicle: saline with Tween-80) 100 % of control; (dose: 400.0 mg/kg/injection, schedule: Q01DX001 (ip), vehicle: saline with Tween-80) 91 % of control.
